Laboratory results published in article PMC9583322, “Vicinal Diaryl-Substituted Isoxazole and Pyrazole Derivatives with In Vitro Growth Inhibitory and In Vivo Antitumor Activity” (ACS Omega, 2022).

Experiments:
MCF7 = assay: SRB cytotoxicity assay; assay type: cell-based, human; details: Homo sapiens, MCF7, 72 h, 72 h treatment
Protocol: (§1) HepG2, FOCUS, Hep3B, Mahlavu, Huh7, Hep40, and PLC-PRF-5 hepatocellular carcinoma cells; MCF-7, MDA-MB-231, MDA-MB-468, SKBR3, and ZR-75 breast cancer cells; and normal-like epithelial MCF-10A breast cells were cultured in low-glucose Dulbecco’s modified Eagle’s medium (DMEM) (Biological Industries-BI) supplemented with 10% fetal bovine serum (FBS) (Gibco/Thermo Fisher Scientific), 2 mM L-Glutamine (Gibco/Thermo Fisher Scientific), 100 Units/mL Penicillin/Streptomycin, and 0.1 mM non-essential amino acid (Gibco/Thermo Fisher Scientific). SNU475 hepatocellular carcinoma cells were maintained in RPMI (Biological Industries-BI) supplemented with 10% fetal bovine serum (FBS) (Gibco/Thermo Fisher Scientific), L-Glutamine (Gibco/Thermo Fisher Scientific), and 100 Units/mL Penicillin/Streptomycin, while ZR-75 breast cancer cells were cultured RPMI (Biological Industries-BI) supplemented with 10% fetal bovine serum (FBS) (Gibco/Thermo Fisher Scientific), 1× sodium pyruvate, and %4.5 glucose. Normal-like MCF-10A breast cells were sustained in DMEM/HAM’S F12 (Hyclone) supplemented with 10% fetal bovine serum (FBS) (Gibco/Thermo Fisher Scientific), EGF (20 ng/mL), Hydrocortisone ([…]), cholera toxin (100 ng/mL), insulin (10 μg/mL), and 100 Units/mL Penicillin/Streptomycin. The cells were cultivated at 37 °C in a humidified incubator under 5% CO2.
(§2) Mahlavu, FOCUS, SNU475 (1000 cell/well in 150 μL/well); Huh7, MCF7 (2500 cell/well in 150 μL/well); HepG2, Hep3B, SKBR3 (3000 cell/well in 150 μL/well); PLC-PRF-5, Hep40 (5000 cell/well in 150 μL/well); MDA-MB-231, MDA-MB-468, MCF10A (6000 cell/well in 150 μL/well); and ZR-75 (7500 cell/well in 150 μL/well) were cultured in 96-well plates and were inoculated in an incubator for 24 hours. The compounds were dissolved in dimethyl sulfoxide (DMSO) (Sigma, St Louis, MO) as a 20 mM stock solution. The treatment of cells with the compounds was done in a concentration range starting from 40 to 2.5 μM. The compounds which were below 2.5 μM were tested in a concentration range from 2.5 to 0.15 μM. End of the 72h compound treatment, the cells were fixed using 10% (v/v) trichloroacetic acid (MERCK) for an hour and washed with ddH2O, and left for air-drying. The fixed plates were stained with 50 μL of sulforhodamine B (SRB) solution (Sigma) at RT for 10 min. To remove unbound SRB dye, acetic acid was used to wash cells three times and left for drying. The protein-bound SRB was solubilized with 10 mM Tris-base (Sigma) and their absorbance was measured with a 96-well plate reader at 515 nm wavelength (ELx800, Biotek). The IC50 values of compounds were calculated in comparison with control group DMSO. Data with R^2 values larger than 0.9 are considered significant.

Huh7 = assay: SRB cytotoxicity assay; assay type: cell-based, human; details: 72 h treatment
Protocol: as §1, §2

Huh7 and MCF7 = assay: SRB cytotoxicity, summary for both cell lines; assay type: cell-based; details: Homo sapiens; one value or range for Huh7 and MCF7 together; read-out: IC50 against both cell lines
Protocol: as §2

Mahlavu = assay: SRB cytotoxicity assay; assay type: cell-based, human; details: Homo sapiens, Mahlavu, 72 h, 72 h treatment
Protocol: as §1, §2

Huh7, Mahlavu and MCF7 = assay: SRB cytotoxicity, summary for all three cell lines; assay type: cell-based; details: Homo sapiens; one value or range for Huh7, Mahlavu and MCF7 together; read-out: IC50 against all three cell lines
Protocol: as §2

In the case of `Cc1onc(-c2ccc(OCc3ccccc3)cc2)c1-c1ccc(Cl)cc1` [compound 9, 3-(4-(Benzyloxy)phenyl)-4-(4-chlorophenyl)-5-methylisoxazole], the melting point is reported as 114.7 to 115.7 °C, the IC50 (MCF7) is reported as > 20 µM and the IC50 (Huh7) is reported as > 20 µM. The IC50 (Huh7; Homo sapiens, Huh-7, 72 h) was ≥ 20 µM and the IC50 (Huh7 and MCF7) was ≥ 20 µM.
In the case of `Cc1cccc(COc2ccc(-c3noc(C)c3-c3ccc(Cl)cc3)cc2)c1` [compound 19, 4-(4-Chlorophenyl)-5-methyl-3-(4-((3-methylbenzyl)oxy)phenyl)isoxazole], the melting point is reported as 119.9 to 121 °C, the IC50 (MCF7) is reported as > 20 µM and the IC50 (Huh7; Homo sapiens, Huh-7, 72 h) is reported as > 20 µM. The IC50 (Huh7 and MCF7) was ≥ 20 µM.
In the case of `Cc1ccc(COc2ccc(-c3noc(C)c3-c3ccc(Cl)cc3)cc2)cc1` [compound 24, 4-(4-Chlorophenyl)-5-methyl-3-(4-((4-methylbenzyl)oxy)phenyl)isoxazole], the melting point is reported as 116.9 to 118.5 °C, the IC50 (MCF7) is reported as > 20 µM and the IC50 (Huh7; Homo sapiens, Huh-7, 72 h) is reported as > 20 µM. The IC50 (Huh7 and MCF7) was ≥ 20 µM.
In the case of `Cc1ccccc1COc1ccc(-c2noc(N)c2-c2ccc(Cl)cc2)cc1` [compound 65, 4-(4-Chlorophenyl)-3-(4-((2-methylbenzyl)oxy)phenyl)isoxazole-5-amine], the melting point is reported as 163.1 to 165.6 °C, the IC50 (Mahlavu) is reported as 3.9 µM and the IC50 (MCF7) is reported as 3.6 µM. The IC50 (Huh7; Homo sapiens, Huh-7, 72 h) was 2 µM and the IC50 (Huh7, Mahlavu and MCF7) was 2 to 3.9 µM.
In the case of `Cc1ccccc1COc1ccc(-c2c(-c3ccc(Cl)cc3)noc2C)cc1` [compound 67, 3-(4-Chlorophenyl)-5-methyl-4-(4-((2-methylbenzyl)oxy)phenyl)isoxazole], the melting point is reported as 84.5 to 86.5 °C, the IC50 (Mahlavu) is reported as > 20 µM and the IC50 (MCF7) is reported as > 20 µM. The IC50 (Huh7; Homo sapiens, Huh-7, 72 h) was > 20 µM and the IC50 (Huh7, Mahlavu and MCF7) was ≥ 20 µM.
`Cc1cc(-c2ccc(OCc3ccccc3C)cc2)n(-c2ccc(Cl)cc2)n1` [compound 69, 1-(4-Chlorophenyl)-3-methyl-5-(4-((2-methylbenzyl)oxy)phenyl)-1H-pyrazole] showed a melting point of 111.8 to 113.6 °C, an IC50 (Mahlavu) of 9.2 µM and an IC50 (MCF7) of 11.9 µM. The IC50 (Huh7; Homo sapiens, Huh-7, 72 h) was 2 µM and the IC50 (Huh7, Mahlavu and MCF7) was 0.7 to 14.4 µM.
With `Cc1ccccc1COc1ccc(-c2[nH]ncc2-c2ccc(Cl)cc2)cc1` [compound 71, 4-(4-Chlorophenyl)-5-(4-((2-methylbenzyl)oxy)phenyl)-1H-pyrazole] the melting point was 127.8 to 129.8 °C, the IC50 (Mahlavu) was 11 µM and the IC50 (MCF7) was 17.5 µM. It also gave an IC50 (Huh7; Homo sapiens, Huh-7, 72 h) of 8.4 µM and an IC50 (Huh7, Mahlavu and MCF7) of 0.7 to 14.4 µM.
For `Cc1ccccc1COc1ccc(-c2nn(C)cc2-c2ccc(Cl)cc2)cc1` [compound 72, 4-(4-Chlorophenyl)-1-methyl-3-(4-((2-methylbenzyl)oxy)phenyl)-1H-pyrazole], the melting point was 142.2 to 143.4 °C, the IC50 (Mahlavu) was 12 µM and the IC50 (MCF7) was 14.4 µM. For the same molecule, the IC50 (Huh7; Homo sapiens, Huh-7, 72 h) was 6.7 µM and the IC50 (Huh7, Mahlavu and MCF7) was 0.7 to 14.4 µM.
For `Cc1cc(-c2ccc(Cl)cc2)n(-c2ccc(OCc3ccccc3C)cc2)n1` [compound 79, 5-(4-Chlorophenyl)-3-methyl-1-(4-((2-methylbenyl)oxy)phenyl)-1H-pyrazole], the melting point was 103.4 to 105.2 °C, the IC50 (Mahlavu) was 9.6 µM and the IC50 (MCF7) was 11.8 µM. It also gave an IC50 (Huh7; Homo sapiens, Huh-7, 72 h) of 3.9 µM and an IC50 (Huh7, Mahlavu and MCF7) of 0.7 to 14.4 µM.
In the case of `Cc1ccccc1COc1ccc(-c2ccnn2-c2ccc(Cl)cc2)c(F)c1` [compound 88, 1-(4-Chlorophenyl)-5-(2-fluoro-4-((2-methylbenzyl)oxy)phenyl)-1H-pyrazole], the melting point is reported as 131.8 to 132.8 °C, the IC50 (Mahlavu) is reported as 3.2 µM and the IC50 (MCF7) is reported as 6.4 µM. The IC50 (Huh7; Homo sapiens, Huh-7, 72 h) was 1.6 µM and the IC50 (Huh7, Mahlavu and MCF7) was 1.6 to 6.4 µM.
For `Cc1ccccc1CNc1ccc(-c2ccnn2-c2ccc(Cl)cc2)cc1` [compound 92, 4-(1-(4-Chlorophenyl)-1H-pyrazol-5-yl)-N-(2-methylbenzyl)aniline], the melting point was 141.5 to 142.8 °C, the IC50 (Mahlavu) was 4.5 µM and the IC50 (MCF7) was > 20 µM. For the same molecule, the IC50 (Huh7; Homo sapiens, Huh-7, 72 h) was 3.6 µM.
